The test system of assay [1] is kidneys (renal ischaemia-reinfusion). The assay is described as follows: Renoprotective effects, renal artery occlusion-reinfusion in rats. It is filed as in vivo, rat. As to conditions: 3 mg/kg i.p. 60 min before the occlusion. As to the method: Study of the Renoprotective Effects
The experiment is carried out on Sprague-Dawley male rats (Charles River France) of 270 to 330 g. The animals are anaesthetized with pentobarbital (60 mg/kg i.p.), intubated and artificially ventilated, their temperature is maintained between 37 and 38° C.
A 3 cm laparotomy is performed on the animal in dorsal decubitus, the right and left renal arteries are exposed and occluded for 30 min, and then the kidneys are reinfused under visual monitoring and the incision is closed. The serum creatinine and urea nitrogen levels are determined from blood samples collected in the orbital sinus, at D0 (before anaesthesia), and then at D1, D2, D3, D4, D8 (after 1 occlusion-reinfusion).
The compound to be studied, or its vehicle (Tween 80 at 2%) is administered at the dose of 3 mg/kg by the i.p. route 60 min before the occlusion.

In assay [2] the test system is hearts isolated from rabbits. In words: Cardioprotective effects on isolated rabbit hearts subjected to regional ischaemia and reinfusion. The arrangement: left ventricular pressure, percentage of preischaemic recovery / contracture during reinfusion / maximum and minimum dP/dt values and double frequency-pressure product: dose or concentration left out as unconfirmed. As to the method: Study of the Cardioprotective Effects
The cardioprotective effects were studied on hearts isolated from rabbits subjected to a regional ischaemia and to a reinfusion. The size of infarction as well as the recovery of the contractile function upon reinfusion were measured.
New Zealand rabbits (2.3 to 2.5 kg, ESD France) are anaesthetized with a ketamine-xylasine mixture and heparinized. The heart is removed and rapidly infused by the retrograde aortic route at a pressure of 75 mmHg with a Krebs Henselheit-type solution. A balloon is introduced into the left ventricle and a telediastolic pressure of 5 mmHg is applied. After a stabilizing period of 20 min, the compound to be studied (1 mM) or the vehicle is added to the infusion solution 15 min before the ischaemia and during the entire duration of the experiment. The regional ischaemia is created by complete ligation of the left coronary artery for 30 min, the heart then being reinfused for 2 h.
The ventricular pressure, heart rate and coronary output parameters are monitored during the whole experiment.
After the reinfusion, the coronary artery is again occluded and China ink is infused in order to delimit the area at risk. Transverse sections are then prepared and incubated in a 1% triphenyltetrazolium solution so as to measure the size of the infarction. The quantification of the necrosed area, expressed as % of the area at risk, is obtained by means of image-analysing software.

Assay [3] relates to motoneurons of the facial nucleus. In words: Survival of the motoneurons after cutting of the facial nerve in 4-day-old rats. The assay is classed as in vivo, rat. As to conditions: 7 d treatment, i.p. route. Here is the method: Test of Survival of the Motoneurons After Cutting of the Facial Nerve in 4-day-old Rats
After lesioning of the facial nerve in immature rats, the motoneurons of the facial nucleus undergo neuronal death by apoptosis. The evaluation of neuronal survival is carried out using histological and neuronal counting methods.
4-Day-old immature rats are anaesthetized with pentobarbital (3 mg/kg by the i.p. route). The right facial nerve is exposed and cut, where it leaves the stylomastoid foramen. After regaining consciousness, the young rats are returned to their mothers and treated, for 7 d, by one or two daily administrations, by the oral or intraperitoneal route, at doses ranging from 1 to 10 mg/kg. 7 d after the lesioning, the animals are decapitated and the brains frozen in isopentane at −40° C. The facial nucleus is cut using a cryostat, into 10 μm sections, in its entirety. The motoneurons are stained with cresyl violet and counted with the aid of the Histo™ software (Biocom™).

Molecules are shown by their SMILES.

`CN(C)C(=O)Cc1nn(-c2ccccc2)c(=O)c2c1c1ccc(Cl)cc1n2C` [Compound No. 1, 7-Chloro-N,N,5-trimethyl-4-oxo-3-phenyl-3,5-dihydro-4H-pyridazino[4,5-b]indole-1-acetamide]: in assay [1] (at D3), the “reduction of creatininaemia compared with the vehicle” value is on record as 56% and the “reduction of uraemia compared with the vehicle” value was determined as 49%. Also, the “mortality in the animals” value in assay [1] (dead/total animals) is 1/12. Besides, the contracture during reinfusion entry in assay [2] is on record as “reduces the contracture”. Besides, the “left ventricular pressure, percentage of preischaemic recovery” value in assay [2] (after 2 h of reinfusion) is 65%. Besides, the “size of the infarction (necrosed area, expressed as % of the area at risk)” value in assay [2] (compound 1 mM in infusion solution, 30 min ischaemia, 2 h reinfusion) was 22±3.3 % of the area at risk. The “reduction in the size of the infarction” value in assay [2] (compound 1 mM in infusion solution, 30 min ischaemia, 2 h reinfusion, vs controls, p<0.01) is recorded as 47%. Besides, the “maximum and minimum dP/dt values and double frequency-pressure product” value in assay [2] (during reinfusion) is reported as “significantly restores”. Moreover, the “increase in neuronal survival” value in assay [3] worked out at 31%.
